Results: patent US20050095196A1, “Method for using potassium channel agonists for delivering a medicant to an abnormal brain region and/or a malignant tumor” (priority 2003, published 2005)
≈ marks a conversion by molar mass, not a printed value. Entries after “also recorded” stand apart in the source; their conditions may differ. Counter-ions that a name gives are not always drawn.

What was measured:
[1] = cited from earlier work
brain tumor capillaries = settings: intracarotid infusion, cited from earlier work
[2] = Arterial blood pressure monitored during intracarotid infusion; type: in vivo; settings: rats; higher doses (100 and 110 μg/kg/min)
Description: Dose-dependence studies. NS-1619 was dissolved in 25% ethanol and diluted with PBS to obtain various concentrations for infusion. NS-1619 was administered by intracarotid infusion (dose rates: 0, 13, 26.5, 53, 80, 100 and 110 μg kg^−1 min^−1; all at 53.3. μL/min) to RG2 glioma-bearing rats to determine a dose that produces increased permeability (Ki) of (^14C]-AIB, which was administered intravenously. Ki determined as described above. Physiological parameters were monitored during the experiments.

[3] = system: blood-tumor barrier of RG2 glioma tissue; experiment: Unidirectional transfer constant Ki for [14C]AIB across the blood-tumor barrier, quantitative autoradiography after intracarotid infusion; type: in vivo, Wistar rats; settings: for unidirectional transport constant Ki for [14C]α-aminoisobutyric acid (AIB) across the blood-tumor barrier: RG2 glioma-bearing Wistar rats, intracarotid 7.5 μg kg^−1 min^−1 for 15 minutes
Excerpt: Malignant Cell Line and Tumor Implantation. A rat glioma cell line, RG2, was used for implantation of experimental brain tumors in Wistar rats. The techniques for RG2 cell propagation and maintenance in tissue culture have been described (Sugita, M. and Black, K. L., Cyclic GMP-specific phosphodiesterase inhibition and intracarotid bradykinin infusion enhances permeability into brain tumors, Cancer Res. 58(5):914-20 [1998]; Inamura et al. [1994]; Nakano, S. et al., Increased brain tumor microvessel permeability after intracarotid bradykinin infusion is mediated by nitric oxide, Cancer Res. 56(17):4027-31 [1996]). Briefly, RG2 cells derived from a rat glioma are kept frozen until use, then are thawed and maintained in a monolayer culture in F12 medium with 10% calf serum.
The Wistar rats (approximately 140-160 g body weight) were anesthetized with intra-peritoneal ketarnine (50 mg/kg), and glial cells (1×10^5) were implanted into the right hemisphere, but not the contralateral hemisphere, by intracerebral injection suspended in 5 μL F12 medium,(1-2% methylcellulose) by.a Hamilton syringe. The implantation coordinates were 3-mm lateral to the bregrna and 4.5 mm deep to the dural surface.
Intracarotid Infusion of Potassium Channel Activators. Seven days after implantation of RG2 cells, the rats were anesthetized as described above and prepared for permeability studies. Animals were infused with either NS-1619 (a selective large conductance Ca^2+- activated K^+ channel activator; […]; 5% (v/v) ethanol. Ethanol (25% [v/v]) was used to dissolve. the potassium channel agonists before.dilution in PBS. For blood volume studies, 5 and 14 minutes after the start of the intracarotid infusion of potassium channel agonist compounds, [^14C] Dextran (100 μCi/kg; Dupont-New England Nuclear Co., Boston, Mass.) was injected as an intravenous bolus and maintained for 1 minute and 10 minutes to obtain two different time points. For regional permeability studies, 5 minutes after the start of the intracarotid infusion of vasoactive compounds, 100 μCi/kg of [^14C]α-aminoisobutyric acid (Dupont-New England Nuclear Colo., Boston, Mass.) was injected as an intravenous bolus. A peristaltic withdrawal pump was used to withdraw femoral arterial blood at a constant rate of 0.083 mL/min immediately after the injection of the tracer to determine serum radioactivity. Fifteen minutes after the intracarotid infusion, rat decapitated and the brain rapidly removed and frozen for quantitative autoradiography.
Unidirectional Transport Constant (Ki). The unidirectional transfer constant Ki for [^14C]α-aminoisobutyric acid was measured in normal tissue and tumor tissue as an indicator of permeability across the blood-tumor and blood-brain barriers. Quantitative autbradiography was. used to obtain Ki values (μL g^−1min^−1). The initial rate for blood-to-brain transfer was calculated using a previously described equation. (Ohno, K, et al., Lower limits of cerebrovascular permeability to nonelectrolytes in the conscious rat, Am. J. Physiol. 235(3):H299-307, [1978]; Inamura, T., et al., Bradykinin selectively opens blood-tumor barrier in experimental brain rumors, J. Cereb. Flow Metab. 14(5):862-70 [1994]). Quantitative data were analyzed using, two group t-test and two-group Fisher's-exact test of equal proportions or equal means (equal numbers) at 90% power requires a minimum of 6 animals in each group to achieve statistical significance. Multiple treatment groups were compared with control group by ANOVA and P values determined by post-hoc Bonferroni test.
Dose-dependence studies. NS-1619 was dissolved in 25% ethanol and diluted with PBS to obtain various concentrations for infusion. […]

Compound: CC(N/C(=N\C#N)Nc1ccncc1)C(C)(C)C (racemic) [pinacidil, (±)-N-cyano-N′-4-pyridinyl-N″-(1,2,2-trimethylpropyl)-guanidine]
- solubility in ethanol ([1]; ethanol): 14 mg/mL (≈ 57.1 mM)
- solubility in water [1]: insoluble in water; also recorded: not easily dissolved in water

Compound: CCCCC/C=C\C\C=C/C=C/C=C/[C@@H](SC[C@H](NC(=O)CC[C@H](N)C(=O)O)C(=O)NCC(=O)O)[C@@H](O)CCCC(=O)O [LTC4, leukotriene C4]
- permeability in normal brain capillaries (brain tumor capillaries): without affecting the permeability
- permeability in brain tumor capillaries (brain tumor capillaries; effect limited to small molecules): selectively increases the permeability

Compound: O=c1[nH]c2cc(C(F)(F)F)ccc2n1-c1cc(C(F)(F)F)ccc1O [NS-1619, 1,3-dihydro-1-[2-hydroxy-5-(trifluoromethyl)phenyl]-5-(trifluoromethyl)-2H-benzimidazol-2-one]
- arterial blood pressure [2]: a significant drop in the arterial blood pressure
- solubility in water [1]: not easily dissolved in water
- Ki for [14C]AIB in RG2 tumor, NS-1619 26.5 μg kg^−1 min^−1 vs PBS with or without 5% ethanol ([3]; 15 minutes, n=8, P<0.001): Increase of Ki
- unidirectional transport constant Ki for [14C]α-aminoisobutyric acid (AIB) across the blood-tumor barrier [3]: significantly increased
- dose-response of Ki for [14C]AIB in RG2 glioma capillaries ([3]; intracarotid dose rates 0, 13, 26.5, 53, 80, 100 and 110 μg kg^−1 min^−1): increasing the dose of NS-1619 results in an increase

Compound: CC1=NS(=O)(=O)c2cc(Cl)ccc2N1 [diazoxide]
- solubility in water [1]: not easily dissolved in water

Compound: Nc1cc(N2CCCCC2)nc(N)[n+]1OS(=O)(=O)[O-] [minoxidil sulfate]
- solubility in water [1]: not easily dissolved in water
- unidirectional transport constant Ki for [14C]α-aminoisobutyric acid (AIB) across the blood-tumor barrier [3]: significantly increased

Compound: IBTX: specific KCa channel inhibitor, iberiotoxin (QFTDVDCSVSKECWSVCKDLFGVDRGKCMGKKCRCYQ; Iberiotoxin; UniProt P24663 1-37, looked up)
- brain-tumor barrier permeability of abnormal capillaries, IBTX alone ([3]; IBTX 2.3 μg kg^−1 min^−1, 15 minutes, n=3): did not affect
- effect of IBTX co-infusion on NS-1619-induced increase of permeability (Ki) ([3]; IBTX 2.3 μg kg^−1 min^−1 with NS-1619 26.5 μg kg^−1 min^−1, n=3, P<0.001 vs NS-1619-treated group): decreased NS-1619-induced increase of permeability
